According to patent US5637731A (priority 1996, dated 1997):
pKi: −log10 of the molar value. Where “and” joins values, the source holds several entries; their conditions need not be identical. Equal entries are not always repeated. Structures can show the parent of a compound that is named as a salt. Where two headings read alike, the source gives them in different places.

Legend:
[1] = tested on: peripheral acetylcholine-like effects; assay: Side effect profile: in vivo overt effects (salivation, tremor, diarrhea) after oral administration; parameters: species or system rat
Description: The use of the radioligand binding assays (^3 H-QNB and ^3 H-CD) to characterize the hydroxylated oxotremorine derivatives provides a useful first approximation for,the evaluation of the muscarinic agonist-like profile of a test compound. However, in using a prodrug methodology, intrinsic activity will not be observed until in vivo hydrolysis or metabolism to the active compound occurs. Therefore, radioligand binding data, performed on the carbonyl derivatives, will not provide leading information. As a result, the observed overt effects after oral administration to rats of the test carbonyl derivative, relative to its corresponding hydroxylated oxotremorine compound, became the primary in vivo pharmacological measure. These in vivo overt effects are attributed to the peripheral acetylcholine-like effects of the compound, such as salivation, tremor and diarrhea. The in vivo overt effects also providing dosing information for the behavioral tests of cognitive improvement.

[2] = target: muscarinic cholinergic receptor; type: binding, rat; settings: rat cerebral cortex, ^3 H-QNB 0.25 nM, 25° C., 120 minutes, pH 7.4
[3] = target: muscarinic cholinergic receptor; assay: [^3 H]-Cis-methyldioxolane (^3 H-CD) Binding Assay (High Affinity); settings: rat cerebral cortex, ^3 H-CD 1.0 nM, 25° C., 120 minutes, pH 7.4; high affinity agonist binding

Structure (SMILES) | Side Effect Profile minimum effective dose (MED) ([1]; (rat) po) | Side Effect Profile minimum effective dose (MED) ([1]; (rat) po; listed as R)-1-[4-(Dimethylamino)-2-butynyl]-2-oxo-3-pyrrolidinyl carbonic acid ethyl este) [μ mol/kg] | pKi [2] | pKi [3]
CCCCCCCC(=O)O[C@H]1CCN(CC#CCN2CCCC2)C1=O | 14 μ mol/kg |  |  | 
CCOC(=O)O[C@@H]1CCN(CC#CCN(C)C)C1=O [(R)-1-[4-(Dimethylamino)-2-butynyl]-2-oxo-3-pyrrolidinyl carbonic acid ethyl ester] | 127 μ mol/kg and 254 μ mol/kg | 258 |  | 
CCCCOC(=O)O[C@@H]1CCN(CC#CCN2CCCC2)C1=O [(R)-2-Oxo-1-[4-(1-pyrrolidinyl)-2-butynyl]-3-pyrrolidinyl carbonic acid butyl ester] | 14 μ mol/kg |  |  | 
CCCCCCOC(=O)O[C@@H]1CCN(CC#CCN2CCCC2)C1=O [(R)-2-Oxo-1-[4-(1-pyrrolidinyl)-2-butynyl]-3-pyrrolidinyl carbonic acid hexyl ester] | 7 μ mol/kg |  |  | 
CCCC(=O)O[C@@H]1CCN(CC#CCN(C)C)C1=O [(R)-Butanoic acid 1-[4-(dimethylamino)-2-butynyl]-2-oxo-3-pyrrolidinyl ester] | 127 μ mol/kg |  |  | 
CCCC(=O)O[C@@H]1CCN(CC#CCN2CCCC2)C1=O [(R)-Butanoic acid 2-oxo-1-[4-(1-pyrrolidinyl)-2-butynyl]-3-pyrrolidinyl ester] | 7.2 μ mol/kg |  |  | 
CCCCNC(=O)O[C@@H]1CCN(CC#CCN(C)C)C1=O [(R)-Butylcarbamic acid 1-[4-(dimethylamino)-2-butynyl]-2-oxo-3-pyrrolidinyl ester] | > 340 μ mol/kg |  |  | 
CCCCNC(=O)O[C@@H]1CCN(CC#CCN2CCCC2)C1=O [(R)-Butylcarbamic acid 2-oxo-1-[4-(1-pyrrolidinyl)-2-butynyl]-3-pyrrolidinyl ester] | > 243 μ mol/kg |  |  | 
CCNC(=O)O[C@@H]1CCN(CC#CCN(C)C)C1=O [(R)-Ethylcarbamic acid 1-[4-(dimethylamino)-2-butynyl]-2-oxo-3-pyrrolidinyl ester] | > 510 μ mol/kg |  |  | 
CCNC(=O)O[C@@H]1CCN(CC#CCN2CCCC2)C1=O [(R)-Ethylcarbamic acid 2-oxo-1-[4-(1-pyrrolidinyl)-2-butynyl]-3-pyrrolidinyl ester] | 28 μ mol/kg |  |  | 
CCCCCC(=O)O[C@@H]1CCN(CC#CCN(C)C)C1=O [(R)-Hexanoic acid 1-[4-(dimethylamino)-2-butynyl]-2-oxo-3-pyrrolidinyl ester] | 255 μ mol/kg |  |  | 
CCCCCC(=O)O[C@@H]1CCN(CC#CCN2CCCC2)C1=O [(R)-Hexanoic acid 2-oxo-1-[4-(1-pyrrolidinyl)-2-butynyl]-3-pyrrolidinyl ester] | 7.0 μ mol/kg |  |  | 
CCCCCCNC(=O)O[C@@H]1CCN(CC#CCN(C)C)C1=O [(R)-Hexylcarbamic acid 1-[4-(dimethylamino)-2-butynyl]-2-oxo-3-pyrrolidinyl ester] | > 530 μ mol/kg |  |  | 
CCCCCCNC(=O)O[C@@H]1CCN(CC#CCN2CCCC2)C1=O [(R)-Hexylcarbamic acid 2-oxo-1-[4-(1-pyrrolidinyl)-2-butynyl]-3-pyrrolidinyl ester] | > 450 μ mol/kg |  |  | 
CCCCCCCC(=O)O[C@@H]1CCN(CC#CCN(C)C)C1=O [(R)-Octanoic acid 1-[4-(dimethylamino)-2-butynyl]-2-oxo-3-pyrrolidinyl ester] | 508 μ mol/kg |  |  | 
CCCCCCCCCC(=O)O[C@H]1CCN(CC#CC[N+](C)(C)C)C1=O [(S)-N,N, N-Trimethyl-4-[2-oxo-3-[(1-oxodecyl)oxy]-1-pyrrolidinyl-2-butyn-1-aminium iodide] |  |  | 8.52 | 6.81
CC(C)C(=O)O[C@H]1CCN(CC#CC[N+](C)(C)C)C1=O [(S)-N,N, N-Trimethyl-4-[3-(2-methyl-1-oxopropoxy)-2-oxo-1-pyrrolidinyl]-2-butyn-1-aminium iodide] |  |  | 4.19 | 5.16
CS[C@H]1CCN(CC#CC[N+](C)(C)C)C1=O [(S)-N,N, N-Trimethyl-4-[3-(methylthio)-2-oxo1-pyrrolidinyl]-2-butyn-1-aminium iodide] |  |  | 5.74 | 6.51
CCCCCCCCOC(=O)O[C@H]1CCN(CC#CC[N+](C)(C)C)C1=O [(S)-N,N, N-Trimethyl-4-[3-[[(octyloxy)carbonyl]oxy]-2-oxo-1-pyrrolidinyl]-2-butyn-1-aminium iodide] |  |  | 7.00 | 7.89

Structure (SMILES) | Side Effect Profile minimum effective dose (MED) ([1]; (rat) po) | Side Effect Profile minimum effective dose (MED) ([1]; (rat) po; listed as R)-1-[4-(Dimethylamino)-2-butynyl]-2-oxo-3-pyrrolidinyl carbonic acid ethyl este) [μ mol/kg] | pKi [2] | pKi [3]
CC(C)(C)[Si](C)(C)OC[C@@H]1CCCN1CC#CCNC(=O)C(F)(F)F [(S)-N-[4-[2-[[[(1,1-Dimethylethyl]-dimethylsilyl]oxy]-methyl]-1-pyrrolidinyl]-2-butynyl]-2,2,2-trifluoroacetamide] |  |  | < 4.00 | 4.38
CCCCCCCCNC(=O)O[C@H]1CC(=O)N(CC#CCN2CCCC2)C1 [(S)-Octylcarbamic acid 2-oxo-1-[4-(1-pyrrolidinyl)-2-butynyl]-4-pyrrolidinyl ester] |  |  | 6.89 | 6.46
CCN(CC)CC#CCN [N,N-Diethyl-2-butyne-1,4-diamine dihydrochloride] |  |  | < 4.00 | < 4.00
CN(C)CC#CCN [N,N-Dimethyl-2-butyne-1,4-diamine dihydrochloride] |  |  | < 4.00 | 4.69
CCN(CC)CC#CCNC(=O)C(F)(F)F [N-[4-(Diethylamino)-2-butynyl]-2,2,2-trifluoroacetamide monohydrochloride] |  |  | < 4.00 | 5.39
CN(C)CC#CCNC(=O)C(F)(F)F [N-[4-Dimethylamino)-2-butynyl]-2,2,2-trifluoroacetamide monomhydrochloride] |  |  | < 4.00 | 5.21
CC1CCN(CC#CCN2CCC(O[Si](C)(C)C(C)(C)C)C2)C1=O (stereo not drawn) [[R-(R*,R* and R*,S*)]-1-[4-[3[[(1,1-dimethylethyl)-dimethylsilyl]oxy]-1-pyrrolidinyl-2-butynyl]-3-methyl-2-pyrrolidinone] |  |  | < 4.00 | < 4.00
CC(C)(C)[Si](C)(C)OC[C@H]1CCCN1CC#CCN1CC[C@@H](O)C1=O [[R-(R*,R*)]-1-[4-[2-[[[(1,1-Dimethylethyl)dimethylsilyl]-oxy]methyl]-1-pyrrolidinyl]-2-butynyl]-3-hydroxy-2-pyrrolidinone] |  |  | < 4.00 | 5.38
CC(=O)O[C@@H]1CCN(CC#CCN2CCC[C@@H]2CO[Si](C)(C)C(C)(C)C)C1=O [[R-(R*,R*)]-3-Acetyloxy)-1-[4-[2-[[[(1,1-dimethylethyl)-dimethylsilyl]oxy]methyl]-1-pyrrolidinyl]-2-butynyl]-2-pyrrolidinone] |  |  | < 4.00 | 5.00
CC(C)(C)[Si](C)(C)OC[C@@H]1CCCN1CC#CCN1CC[C@@H](O)C1=O [[R-(R*,S*)]-1-[4-[2-[[[(1,1-dimethylethyl)dimethylsilyl]oxy]methyl]-1-pyrrolidinyl]-2-butynyl]-3-hydroxy-2-pyrrolidone] |  |  | 6.30 | 6.33
CC(=O)O[C@@H]1CCN(CC#CCN2CCC[C@H]2CO[Si](C)(C)C(C)(C)C)C1=O [[R-(R*,S*)]-3-(Acetoxy)-1-[4-[2-[[[(1,1-dimethylethyl)dimethylsilyl]oxy]methyl]-1-pyrrolidinyl]-2-butynyl]-1]-2-pyrrolidinone] |  |  | 3.30 | 5.77
CC1CCN(CC#CCN2CCCC2CO[Si](C)(C)C(C)(C)C)C1=O (stereo not drawn) [[R-[(R*,R* and R*,S*)]]-1-[4-[2-[[[(1,1-dimethylethyl)dimethylsilyl]oxy]methyl]-1-pyrrolidinyl]-2-butynyl]-3-methyl-2-pyrrolidinone] |  |  | 5.60 | 5.25
CC(C)(C)[Si](C)(C)OC[C@@H]1CCCN1CC#CCN1CC[C@H](O)C1=O [[S-(R*,R*)]-1-[4-[2-[[[(1,1-Dimethylethyl)dimethylsilyl]-oxy]methyl]-1-pyrrolidinyl]-2-butynyl]-3-hydroxy-2-pyrrolidinone] |  |  | 6.40 | 6.85
CC(=O)O[C@H]1CCN(CC#CCN2CCC[C@H]2CO[Si](C)(C)C(C)(C)C)C1=O [[S-(R*,R*)]-3-(Acetyloxy)-1-[4-[2-[[[(1,1-dimethylethyl)-dimethylsilyl]oxy]methyl]-1-pyrrolidinyl]-2-butynyl]-2-pyrrolidinone] |  |  | 5.59 | 7.10
O=C1[C@@H](O)CCN1CC#CCN1CCC[C@H]1CO [[S-(R*,R*)]-3-Hydroxy-1-[4-[2-(hydroxymethyl)-1-pyrrolidinyl]-2-butynyl]-2-pyrrolidinone] |  |  | < 4.00 | 4.46
CC(C)(C)[Si](C)(C)OC[C@H]1CCCN1CC#CCN1CC[C@H](O)C1=O [[S-(R*,S*)]-1-[4-[2-[[[(1,1-Dimethylethyl)dimethylsilyl]-oxy]methyl]-1-pyrrolidinyl]-2-butynyl]-3-hydroxy-2-pyrrolidinone] |  |  | 3.70 | 5.77
CC(=O)O[C@H]1CCN(CC#CCN2CCC[C@@H]2CO[Si](C)(C)C(C)(C)C)C1=O [[S-(R*,S*)]-3-(Acetyloxy)-1-[4-(2-[[[(1,1-dimethylethyl)dimethylsilyl]oxy]methyl]-1-pyrrolidinyl]-2-butynyl]-2-pyrrolidinone] |  |  | < 4.00 | 5.38
O=C1[C@@H](O)CCN1CC#CCN1CCC[C@@H]1CO [[S-(R*,S*)]-3-Hydroxy-1-[4-[2-(hydroxymethyl)-1-pyrrolidinyl]-2-butynyl]-2-pyrrolidinone] |  |  | < 4.00 | 5.59
